Tests used:
Experiment in all cases: Herbicidal post-emergence action (Part 2), 1280 g/ha
Format in all cases: in vivo
[1] = tested on: Abutilon theophrasti; details: application rate 1280 g/ha, rated visually after about 3 weeks, Table C4
How it was run: (§1)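 Visual percent damage scored versus untreated plants roughly 3 weeks after treatment, where 100% means plants died. Spray was applied post-emergence to one-leaf-stage weeds raised in sandy loam under greenhouse conditions, using 0.5% additive and 600 L/ha water.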

[2] = tested on: Stellaria media; details: application rate 1280 g/ha, rated visually after about 3 weeks, Table C7
How it was run: as §1

[3] = tested on: Matricaria inodora; details: application rate 1280 g/ha, rated visually after about 3 weeks, Table C6
How it was run: as §1

[4] = tested on: Poa annua; details: application rate 1280 g/ha, rated visually after about 3 weeks, Table C2
How it was run: as §1

[5] = tested on: Echinochloa crus-galli; details: post-emergence (Part 2), application rate 1280 g/ha, rated visually after about 3 weeks vs untreated controls
How it was run: as §1

[6] = tested on: Setaria viridis; details: application rate 1280 g/ha, rated visually after about 3 weeks, Table C3
How it was run: as §1

[7] = tested on: Amaranthus retroflexus; details: application rate 1280 g/ha, rated visually after about 3 weeks, Table C5
How it was run: as §1

CC1CC(O)N(c2cc(C(C)(C)C)on2)C(=O)N1C (stereo not shown) [I.41-162, 1-(5-tert-Butyl-1,2-oxazol-3-yl)-6-hydroxy-3,4-dimethyltetrahydropyrimidin-2(1H)-one]
100%: Abutilon theophrasti [1] | Stellaria media [2] | Matricaria inodora [3] | Poa Annua [4] | Echinochloa crus-galli [5] | Setaria viridis [6] | Amaranthus retroflexus [7]

— patent US20200390100A1, “SUBSTITUTED N-HETEROCYCLYL- AND N-HETEROARYL-TETRAHYDROPYRIMIDINONES AND THE SALTS THEREOF, AND THE USE OF SAME AS HERBICIDAL ACTIVE SUBSTANCES” (Bayer Aktiengesellschaft, priority 2017, published 2020)
